{
  "source": "patent US20150080475A1",
  "about": "“Memantine Protects Inflammation-Related Degeneration of Dopamine Neurons Through Inhibition of Over-Activated Microglia and Release of Neurotrophic Factors From Astroglia” (priority 2009, published 2015)",
  "key": {"[1]": {"test_system": "GDNF", "test": "RT-PCR of GDNF mRNA in astroglial cultures", "assay_type": "cell-based, rat", "conditions": "memantine 10 μM, time-dependent, 0 min to 24 h", "method": "(§1) GDNF mediated memantine-induced neurotrophic effects. Rat primary astroglia were exposed to 10 μM memantine for various time points ranging from 0 minute to 24 h. (FIG. 5A) Total RNA was extracted. […] (FIG. 5B) The ratio of densitometry values of GDNF and β-actin was analyzed and normalized to 0 min value. (FIG. 5C) Total protein of astroglial cells was extracted. Western blot analyses were performed with the antibody to GDNF. GAPDH was used as loading control. (FIG. 5D) The ratio of densitometry values of GDNF and GAPDH was analyzed and normalized to 0 min value. Values were expressed as mean±S.E.M. of three independent experiments. *p<0.05, **p<0.01, ***p<0.001, Bonferroni t-test vs 0 min for FIG. 5B and FIG. 5D; (FIG. 5E) Neuron-glia cultures were treated with either control goat IgG (isotype Ab), or goat anti-GDNF, combined with memantine (10 μM) treatment. DA uptake capacity was measured 7 days later. Results were expressed as a percentage of the vehicle-treated control cultures and represented mean±S.E.M. of three independent experiments performed in triplicate. *p<0.05, **p<0.01, ***p<0.001, Bonferroni's test vs control; #p<0.05, Bonferroni t-test vs memantine treated cultures.\nMixed-glia cultures were first prepared from brains of 1-day-old Fisher 344 rat pups, as described previously. […]"}, "[2]": {"test_system": "GDNF", "test": "Western blot of GDNF protein in astroglial cells", "assay_type": "cell-based, rat", "conditions": "memantine 10 μM", "method": "as §1\nMixed-glia cultures were first prepared from brains of 1-day-old Fisher 344 rat pups, as described previously. Briefly, mechanically dissociated brain cells (5×10^7) were seeded onto 150-cm^2 culture flasks in Dulbecco's modified Eagle's medium containing 10% heat-inactivated FBS, 2 mM L-glutamine, 1 mM sodium pyruvate, 100 μM non-essential amino acids, 50 U/ml penicillin and 50 μg/ml streptomycin. The cultures were maintained at 37° C. in a humidified atmosphere of 5% CO2 and 95% air, and medium was replenished 4 days after the initial seeding. Upon reaching confluence (usually 12-14 days later), microglia were detached from astrocytes by shaking the flasks at a speed of 180 r.p.m. for 5 h. Astrocytes were then detached with trypsin-ethylenediaminetetraacetic acid (EDTA) and seeded in the same culture medium. […]"}, "[3]": {"test_system": "PGE2", "test": "PGE2 ELISA after LPS", "assay_type": "cell-based", "method": "The production of TNF-α was measured with a commercial ELISA kit from R&D Systems. The PGE2 release was measured with a commercial ELISA kit from Cayman Chemical Company.\nNeuron-glia cultures were pretreated for 30 min with MMT (3 μM) or vehicle before LPS stimulation. […] Production of superoxide (30 min after LPS) and iROS (2 h after LPS) was decreased by MMT treatment (FIGS. 6A and 6B). […] The production of PGE2 in cultures pretreated with 3 and 10 μM MMT decreased by 23% and 27% respectively (FIG. 6E)."}, "[4]": {"test_system": "rewarding effect of morphine", "test": "Conditioned place preference (CPP) test in chronic morphine-treated rats", "assay_type": "in vivo, SD rats", "method": "The SD rats were divided into four groups as follow: • 1. Control group: (inject saline only) • 2. Morphine only group: (M, 5 mg/kg) • 3. Pretreatment memantine (MEM, 0.2 mg/kg) with morphine group • (MEM was administrated 30 min before each M injection for 6 days) • 4. Post-treatment MEM group • (MEM was administrated after chronic M injection for 6 days)\nDrug-induced reward effect was measured by the conditioned place preference (CPP) test. The CPP test apparatus was divided into two compartments. A two compartment box (60×29.2×29.2 cm) with a transparent Plexiglas front was separated by a gray cylinder platform (10.3 cm in diameter and 12 cm in height) as the Dr. Tseng described previously was used (Terashvili et al., 2008). One compartment was white with a textured floor and the other was black with a smooth floor. […] We determined the place preference before conditioning and on the day after conditioning (day 0, day 7, day 11 and day 13) by placing the rat into the CPP test apparatus with the gray cylinder doors open for 15 min. The time that the rats stayed in each compartment was recorded. The measurement of the drug reward effect was determined by the increase in the time spent in the compartment previously paired with drug injection relative to that spent in the saline-paired compartment."}, "[5]": {"test_system": "astrocyte, and micrglia", "test": "BrdU cytogenesis test in rat primary midbrain neuron-glia cultures", "assay_type": "cell-based", "conditions": "10 μM MMT, 24 hours", "method": "Rat primary mesencephalic neuron-glia cultures seeded in a 24-well culture plate at density of 5×10^5 per well were treated with 10 μM MMT or its vehicle, and simultaneously with 1 μl Brdu seven days after seeding. 24 hours later, the cultures was fixed with 3.7% of PDF for GFAF, iba-1, and DAPI staining.\nIn addition to the pre-treatment experiments, similar studies using post-treatment designs were conducted to determine the efficacy of MMT. In these experiments, neuron-glia cultures were either treated with MMT (10 μM) and LPS (2.5 ng/ml) at the same time, or MMT was added 30, 60, 120 or 180 min after the addition of LPS. One week later, DA uptake of the culture was assayed."}},
  "data": [
    {"smiles": "CC12CC3CC(C)(C1)CC(N)(C3)C2.Cl", "note": "[MMT, 1-amino-3,5-dimethyladamantane hydrochloride]", "values": [
      {"measurement": "GDNF mRNA levels", "setting": "[1]", "result": "significant main effects"},
      {"measurement": "GDNF protein level vs vehicle-treated control", "setting": "[2]; 6 h", "result": "significantly increased level"},
      {"measurement": "GDNF protein level vs vehicle-treated control", "setting": "[2]; 12 h", "result": "peaked"},
      {"measurement": "GDNF protein level vs vehicle-treated control", "setting": "[2]; 24 h", "result": "still expressed"},
      {"measurement": "decrease of PGE2 production", "setting": "[3]; pretreated with 3 μM MMT", "result": 23, "unit": "%"},
      {"measurement": "decrease of PGE2 production", "setting": "[3]; pretreated with 10 μM MMT", "result": 27, "unit": "%"},
      {"measurement": "time of staying in the compartment paired with morphine (CPP)", "setting": "[4]; post-treatment, memantine 0.2 mg/kg s.c. once daily for 6 days after chronic morphine", "result": "reduced time of staying in the compartment paired with morphine"},
      {"measurement": "time of staying in the compartment paired with morphine (CPP)", "setting": "[4]; pretreatment, memantine 0.2 mg/kg s.c. 30 min before each morphine 5 mg/kg i.p., 6 days", "result": "reduced time of staying in the compartment paired with morphine"},
      {"measurement": "proliferation of astrocyte and microglia compared with control", "setting": "[5]", "result": "does not induce more proliferation"}
    ]}
  ]
}
